Test results published in US20010044384A1, “Method of preventing premature fruit drop from apple trees” (priority 1998, published 2001).

Tests used:
Type in all cases: in vivo
McIntosh® Apple trees [1] = experiment: Example 2: cyclanilide vs ReTain vs untreated on apple trees, results just before harvest; conditions: for % cumulative fruit dropped from tree / Fruit Starch Index: just before harvest
Description: An orchard of McIntosh® Apple trees at a stage where the apples were approximately 4.5 cm in diameter were sprayed with an aqueous suspension comprising cyclanilide and Regulaid®, a non-ionic surfactant (0.25% v/v) at several rates. About two months later, the following observations were made:
The process of Example 1 was repeated using an aqueous suspension comprising cyclanilide and a surfactant using an application rate of cyclanilide of 50 g/ha. As a comparison, ReTain® ([S]-trans-2-amino-4-(2-aminoethoxy)-3-butenoic acid) was applied according to commercially acceptable methods on another plot of trees and another plot of trees were left untreated.
Just before harvest, the following results were obtained: […]

McIntosh® Apple trees [2] = experiment: Example 1: spraying McIntosh apple trees with cyclanilide suspension, observations about two months later; conditions: about two months after spraying; for % fruit dropped from tree: with Regulaid 0.25% v/v
Description: An orchard of McIntosh® Apple trees at a stage where the apples were approximately 4.5 cm in diameter were sprayed with an aqueous suspension comprising cyclanilide and Regulaid®, a non-ionic surfactant (0.25% v/v) at several rates. About two months later, the following observations were made: […]

apple trees = experiment: General findings on apples treated by the method of the invention (description)
[3] = compared with untreated fruit and fruit treated by prior art compounds

| Compound | % cumulative fruit dropped from tree (McIntosh® Apple trees [1]; 125 g/ha of ingredient) [%] | Fruit Starch Index (McIntosh® Apple trees [1]; 125 g/ha of ingredient) | BRIX index (soluble solids) (McIntosh® Apple trees [2]; cyclanilide 50 g/ha) | Fruit Starch Index (McIntosh® Apple trees [2]; cyclanilide 50 g/ha) | % fruit dropped from tree (McIntosh® Apple trees [2]; cyclanilide 50 g/ha) [%] | BRIX index (soluble solids) (McIntosh® Apple trees [2]; cyclanilide 100 g/ha) | Fruit Starch Index (McIntosh® Apple trees [2]; cyclanilide 100 g/ha) | % fruit dropped from tree (McIntosh® Apple trees [2]; cyclanilide 100 g/ha) [%] | BRIX index (soluble solids) (McIntosh® Apple trees [2]; cyclanilide 200 g/ha) | Fruit Starch Index (McIntosh® Apple trees [2]; cyclanilide 200 g/ha) | % fruit dropped from tree (McIntosh® Apple trees [2]; cyclanilide 200 g/ha) [%] | % cumulative fruit dropped from tree (McIntosh® Apple trees [1]; 50 g/ha of ingredient) [%] | Fruit Starch Index (McIntosh® Apple trees [1]; 50 g/ha of ingredient) | color of the fruit (McIntosh® Apple trees [1]; cyclanilide 50 g/ha, compared with ReTain-treated fruit) | overall quality of fruit (McIntosh® Apple trees [1]; cyclanilide 50 g/ha, compared with untreated fruit and ReTain-treated fruit) | starch content of apples (apple trees; compared with apples not treated) | color characteristic of apples (apple trees; compared with fruit treated by prior art compounds) | content of soluble solids as measured by the BRIX index (apple trees; [3]) | firmness of apples (apple trees; [3]) | amount of fruit drop as a function of the amount applied (apple trees; general statement) |
| --- | --- | --- | --- | --- | --- | --- | --- | --- | --- | --- | --- | --- | --- | --- | --- | --- | --- | --- | --- | --- |
| NCCO/C=C/[C@H](N)C(=O)O (stereo in doubt) [ReTain ®, [S]-trans-2-amino-4-(2-aminoethoxy)-3-butenoic acid, reference compound] | 68.2 | 5.4 |  |  |  |  |  |  |  |  |  |  |  |  |  |  |  |  |  |  |
| O=C(O)C1(C(=O)Nc2ccc(Cl)cc2Cl)CC1 [cyclanilide, 1-(2,4-dichloroanilinocarbonyl)cyclopropane carboxylic acid] |  |  | 13 | 5.1 | 6 | 12.9 | 5.0 | 9.8 | 13.0 | 4.9 | 13.5 | 47.4 | 5.0 | better than that of the fruit treated by the prior art compound ReTain® | better than that of the untreated fruit and that obtained from treatment by the prior art compound ReTain® | lower starch content than apples not treated by the method of the invention | better color characteristic than fruit treated by prior art compounds | higher content of soluble solids than untreated fruit and than fruit treated by prior art compounds | greater firmness than untreated fruit and than fruit treated by prior art compounds | generally decreases as a function of the amount of cyclanilide applied |
